Results from publication PMC8464836 (Biomolecules, 2021).

What was measured:
[1] = PAMPA assay (Polar Brain Lipid membrane); conditions: for CNS (+/−): BBB permeability class predicted from PAMPA Pe; for Papp: PAMPA, pH 7.4
Experimental: In this study, it has been used as a non-cell-based in vitro assay carried out in a coated 96-well membrane filter. The filter membrane of the donor plate was coated with PBL (Polar Brain Lipid, Avanti, AL, USA) in dodecane (4 µL of 20 mg/mL PBL in dodecane) and the acceptor well was filled with 300 µL of PBS pH 7.4 buffer (VA tested compounds were dissolved first in the DMSO/phosphate-buffered saline mixture (maximum 0.5% v/v of DMSO) and subsequently diluted with phosphate-buffered saline (pH 7.4) to final concentrations of 40–100 μM in the donor wells). […] About 300 µL of the donor solution was added to the donor wells (VD) and the donor filter plate was carefully put on the acceptor plate so that coated membrane was “in touch” with both donor solution and acceptor buffer. Test compound diffused from the donor well through the lipid membrane (Area = 0.28 cm^2) to the acceptor well. The concentration of the drug in both donor and the acceptor wells were assessed after 3, 4, 5, and 6 h of incubation in quadruplicate using the UV plate reader Synergy HT (Biotek, Winooski, VT, USA) at the maximum absorption wavelength of each compound. Besides that, solution of theoretical compound concentration, simulating the equilibrium state established if the membrane were ideally permeable was prepared and assessed as well. Concentration of the compounds in the donor and acceptor well and equilibrium concentration were calculated from the standard curve and expressed as the permeability (Pe) according to the equation:(4) Pe=C×ln(1−[drug] acceptor/[drug] equilibrium) where C=(VD×VA)/(VD×VA) Area×Time

[2] = biological target: T1, dopamine receptor (D2) wild type (D2Rs) (Homo sapiens, UniProt P14416); experiment: D2R competition binding with [3H]-spiperone on membranes of transfected CHO cells; conditions: for Ki: D2Rs, competition with 180 pM [3H]-spiperone, mean ± SEM, n = 3; for IC50: Table S1, D2Rs, mean ± S.E.M. of 3 independent experiments in triplicate, read-out: IC50 in µM ± SEM
T1 construct: host or cells: CHO cells, transient PEI transfection; membranes prepared 48 h after transfection
Experimental: Chinese hamster ovary cells (CHO cells) were used for the binding experiments. About 24 h before transfection, CHO cells were plated on a 10 cm Petri dish at a density of 1.5 × 10^6 cells and cultivated in 10 mL DMEM/Ham’s F12 supplemented with 10% heat-inactivated fetal bovine serum (FBS).
For transfection, the desired amount of linear polyethyleneimine (PEI) 25_K (Polysciences, Eppelheim, Germany) and DNA (dopamine receptor (D2) wild type, cDNA resource centre, Bloomsberg, PA, USA) were diluted separately in phosphate buffer saline (PBS). After 20 min, DNA was added to PEI solution, mixed and left for an additional 30 min. Final concentration of reactants was 6 µg plasmid DNA and 18 µg PEI per ml. PEI/DNA complex was added (1 mL/dish) and the plates were incubated for another 24 h. Then, the medium was replaced with fresh DMEM/Ham’s F12 with 10% FBS and incubated for an additional 24 h. Cells were maintained at 37 °C in a 5% CO2-humidified atmosphere.
About 48 h after transfection, cells were washed with PBS, mechanically detached from the dish with a plastic scraper in the ice-cold PBS, and centrifuged for 3 min at 250× g. Pellet was suspended in the ice-cold homogenization medium (100 mM NaCl, 20 mM Na-HEPES, 10 mM EDTA, pH 7.4) and homogenized on ice by two 30-s strokes using Polytron homogenizer (Ultra-Turrax; Janke & Kunkel GmbH & Co. KG, IKA-Labortechnik, Staufen, Germany) with a 30-s pause between strokes. Cell homogenates were centrifuged for 5 min at 1000× g. The supernatant was collected and centrifuged for 30 min at 30,000× g. Pellets were suspended in incubation medium (100 mM NaCl, 20 mM Na-HEPES, 10 mM MgCl2, pH 7.4), left for 30 min at 4 °C and centrifuged again for 30 min at 30,000× g. The membrane pellets were kept at −80 °C until use.
All radioligand binding experiments were optimized and carried out as described by El-Fakahany and Jakubik. […] Saturation experiments were performed in 800 μL volume containing: 400 μL of the membrane suspension and 400 μL of the radioligand in six increasing concentrations (ranging from 31 to 1000 pM).
The examined compounds were diluted in incubation buffer and tested in six concentrations (ranging from 0.1 nM–1 mM). The reactions were performed in 400 µL volume containing: 100 µL of the radioligand, 100 µL of tested substances dilution, and 200 µL of the membranes.
Nonspecific binding was determined in the presence of 10 μM unlabeled sulpiride. Membrane suspensions from both saturation and binding experiments (approximately 10 μg of membrane proteins per sample) were incubated in 96-well plates for 1 h at 25 °C in the incubation medium (100 mM NaCl, 20 mM Na-HEPES,10 mM MgCl2, pH = 7.4) in a shaking incubator (25 °C; PST-60HL, Biosan, Riga, Latvia).
The binding reactions were terminated by filtration of the membranes through APFC filter plate (Millipore, Prague, Czech Republic) pre-soaked with 0.5% PEI and washed with ice-cold distilled water using a Brandel cell harvester (Brandel, Gaithersburg, MD, USA). Then, filters with labelled membranes were dried. After 24 h, scintillation cocktail (Rotiszint eco plus, Carl Roth) was added to each sample and radioactivity was quantified by liquid scintillation spectrometry using Wallac Microbeta scintillation counter (Wallac, Turku, Finland). Competition binding experiments were performed per triplicate and all experiments were performed three times. Protein concentration was determined by the Lowry method in the Peterson modification.

[3] = test system: CHO-K1 cells; experiment: MTT assay on CHO-K1 cells; format: cell-based, Chinese hamster; conditions: Cricetulus griseus, cell viability, 24 h exposure, mean ± SEM, n = 3
Experimental: Standard MTT (3-[4,5-dimethylthiazol-2-yl]-2,5-diphenyltetrazolium bromide) assay (Sigma Aldrich, Prague, Czech Republic) was used according to the manufacturer´s protocol on the CHO-K1 (Chinese hamster ovary, ECACC, Salisbury, UK) in order to compare the effect of different compounds within the series. The cells were cultured according to ECACC recommended conditions and seeded in a density of 8000 per well as described previously. […] Cells were exposed to a tested compound for 24 h. Then the medium was replaced by a medium containing 10 μM of MTT and cells were allowed to produce formazan for another approximately 3 h under surveillance. Thereafter, medium with MTT was sucked out and crystals of formazan were dissolved in DMSO (100 µL). Cell viability was assessed spectrophotometrically by the amount of formazan produced. Absorbance was measured at 570 nm with 650 nm reference wavelength on Synergy HT (BioTek, Winooski, VT, USA). IC50 was then calculated from the control-subtracted triplicates using non-linear regression (four parameters) of GraphPad Prism 9 software. Final IC50 and SEM values were obtained as a mean of three independent measurements.

[4] = biological target: D2Rs; conditions: Figure 1; cited from earlier work
[5] = biological target: D3Rs; conditions: Figure 1; cited from earlier work

T1 sequence (P14416 whole entry): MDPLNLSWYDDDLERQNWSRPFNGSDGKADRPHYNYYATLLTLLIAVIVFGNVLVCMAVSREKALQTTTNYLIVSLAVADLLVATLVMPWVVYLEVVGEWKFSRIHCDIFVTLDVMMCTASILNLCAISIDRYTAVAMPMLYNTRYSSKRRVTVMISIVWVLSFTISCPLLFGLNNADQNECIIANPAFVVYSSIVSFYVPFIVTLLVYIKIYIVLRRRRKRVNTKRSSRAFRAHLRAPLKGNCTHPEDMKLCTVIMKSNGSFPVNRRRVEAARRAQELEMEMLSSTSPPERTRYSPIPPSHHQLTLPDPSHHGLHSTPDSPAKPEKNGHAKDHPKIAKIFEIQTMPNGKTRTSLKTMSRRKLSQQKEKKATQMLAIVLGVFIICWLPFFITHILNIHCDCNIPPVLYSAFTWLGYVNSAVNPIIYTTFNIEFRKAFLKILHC

| Compound | CNS (+/−) [1] | Papp [1] | Ki [2] | IC50 [2] | IC50 [3] | Ki [4] | pKi for D2Rs [4] | pKi for D3Rs [5] |
| --- | --- | --- | --- | --- | --- | --- | --- | --- |
| O=C1CCc2ccccc2N1CCCCN1CCSCC1 [6e, 1-(4-Thiomorpholinobutyl)-3,4-dihydroquinolin-2(1H)-one] | CNS + (CNS + (high BBB permeability predicted), Pe (10^−6 cm∙s^−1) > 4.0) | 23 ± 3.3 ×10⁻⁶ cm/s | 9.7 ± 2.3 µM | 40 ± 8.2 µM | 0.8 ± 0.1 mM |  |  |  |
| CCN(CC)CCCN1C(=O)CCc2ccccc21 [5f, 1-(3-(Diethylamino)propyl)-3,4-dihydroquinolin-2(1H)-one] | CNS + (CNS + (high BBB permeability predicted), Pe (10^−6 cm∙s^−1) > 4.0) | 9.4 ± 0.4 ×10⁻⁶ cm/s | 37 ± 8.6 µM | 150 ± 34 µM | 0.9 ± 0.2 mM |  |  |  |
| O=C1CCc2ccccc2N1CCCCN1CCCCC1 [6b, 1-(4-(Piperidin-1-yl)butyl)-3,4-dihydroquinolin-2(1H)-one] | CNS + (CNS + (high BBB permeability predicted), Pe (10^−6 cm∙s^−1) > 4.0) | 10 ± 1.4 ×10⁻⁶ cm/s | 14 ± 2.5 µM | 57 ± 10 µM | 0.8 ± 0.2 mM |  |  |  |
| COCCN(C)CCCCN1C(=O)CCc2ccccc21 [6g, 1-(4-((2-Methoxyethyl)(methyl)amino)butyl)-3,4-dihydroquinolin-2(1H)-one] | CNS + (CNS + (high BBB permeability predicted), Pe (10^−6 cm∙s^−1) > 4.0) | 9.5 ± 1.1 ×10⁻⁶ cm/s | 45 ± 11 µM | 188 ± 38 µM | 2.1 ± 0.8 mM |  |  |  |
| COCCN(C)CCCN1C(=O)CCc2ccccc21 [5g, 1-(3-((2-Methoxyethyl)(methyl)amino)propyl)-3,4-dihydroquinolin-2(1H)-one] | CNS + (CNS + (high BBB permeability predicted), Pe (10^−6 cm∙s^−1) > 4.0) | 10 ± 1.6 ×10⁻⁶ cm/s | 26 ± 6.1 µM | 106 ± 24 µM | 1.5 ± 0.5 mM |  |  |  |
| O=C1CCc2ccccc2N1CCCN1CCCC1 [5a, 1-(3-(Pyrrolidin-1-yl)propyl)-3,4-dihydroquinolin-2(1H)-one] | CNS + (CNS + (high BBB permeability predicted), Pe (10^−6 cm∙s^−1) > 4.0) | 7.3 ± 0.8 ×10⁻⁶ cm/s | 24 ± 5.8 µM | 98 ± 23 µM | 2 ± 0.8 mM |  |  |  |
| CN1CCN(CCCCN2C(=O)CCc3ccccc32)CC1 [6c, 1-(4-(4-Methylpiperazin-1-yl)butyl)-3,4-dihydroquinolin-2(1H)-one] | CNS + (CNS + (high BBB permeability predicted), Pe (10^−6 cm∙s^−1) > 4.0) | 7.1 ± 1.2 ×10⁻⁶ cm/s | 21 ± 0.6 µM | 82 ± 2.3 µM | 1.2 ± 0.2 mM |  |  |  |
| NS(=O)(=O)c1cc2c(cc1Cl)N=CNS2(=O)=O [Chlorothiazide, reference compound] |  | 1.2 ± 0.5 ×10⁻⁶ cm/s |  |  |  |  |  |  |
| O=C1CCc2ccccc2N1CCCCN1CCCC1 [6a, 1-(4-(Pyrrolidin-1-yl)butyl)-3,4-dihydroquinolin-2(1H)-one] | CNS + (CNS + (high BBB permeability predicted), Pe (10^−6 cm∙s^−1) > 4.0) | 7.7 ± 1.8 ×10⁻⁶ cm/s | 23 ± 3.6 µM | 93 ± 14 µM | 1.1 ± 0.2 mM |  |  |  |
| O=C1CCc2ccccc2N1CCCN1CCSCC1 [5e, 1-(3-Thiomorpholinopropyl)-3,4-dihydroquinolin-2(1H)-one] | CNS + (CNS + (high BBB permeability predicted), Pe (10^−6 cm∙s^−1) > 4.0) | 24 ± 2.1 ×10⁻⁶ cm/s | 7.6 ± 1.9 µM | 30 ± 7.7 µM | 0.5 ± 0.1 mM |  |  |  |
| O=C1CCc2ccccc2N1CCCCN1CCOCC1 [6d, 1-(4-Morpholinobutyl)-3,4-dihydroquinolin-2(1H)-one] | CNS + (CNS + (high BBB permeability predicted), Pe (10^−6 cm∙s^−1) > 4.0) | 17 ± 2.1 ×10⁻⁶ cm/s | 41 ± 14 µM | 166 ± 56 µM | 1.3 ± 0.2 mM |  |  |  |
| CCc1cc(Cl)c(OC)c(C(=O)NC[C@@H]2CCCN2CC)c1O [eticlopride] |  |  |  |  |  | 0.0001 µM |  |  |
| CCN(CC)CCCCN1C(=O)CCc2ccccc21 [6f, 1-(4-(Diethylamino)butyl)-3,4-dihydroquinolin-2(1H)-one] | CNS + (CNS + (high BBB permeability predicted), Pe (10^−6 cm∙s^−1) > 4.0) | 7.4 ± 0.9 ×10⁻⁶ cm/s | 27 ± 4.7 µM | 103 ± 19 µM | 1.8 ± 0.3 mM |  |  |  |
| CN1CCN(CCCN2C(=O)CCc3ccccc32)CC1 [5c, 1-(3-(4-Methylpiperazin-1-yl)propyl)-3,4-dihydroquinolin-2(1H)-one] | CNS + (CNS + (high BBB permeability predicted), Pe (10^−6 cm∙s^−1) > 4.0) | 7 ± 0.4 ×10⁻⁶ cm/s | 12 ± 3.2 µM | 49 ± 13 µM | 2 ± 1 mM |  |  |  |
| COc1ccccc1N1CCN(CCCN2C(=O)CCc3ccccc32)CC1 [USC-D301] |  |  |  |  |  |  | 7.8 | 6.4 |
| O=C1CCc2ccccc2N1CCCN1CCCCC1 [5b, 1-(3-(Piperidin-1-yl)propyl)-3,4-dihydroquinolin-2(1H)-one] | CNS + (CNS + (high BBB permeability predicted), Pe (10^−6 cm∙s^−1) > 4.0) | 13 ± 0.1 ×10⁻⁶ cm/s | 9.7 ± 1.6 µM | 39 ± 6.4 µM | 1.5 ± 0.3 mM |  |  |  |
| CNC(=C[N+](=O)[O-])NCCSCc1ccc(CN(C)C)o1 [Ranitidine, reference compound] | CNS − (CNS − (low BBB permeability predicted), Pe (10^−6 cm∙s^−1) < 2.0) | 0.4 ± 0.3 ×10⁻⁶ cm/s |  |  |  |  |  |  |
| O=C1CCc2ccccc2N1CCCN1CCOCC1 [5d, 1-(3-Morpholinopropyl)-3,4-dihydroquinolin-2(1H)-one] | CNS + (CNS + (high BBB permeability predicted), Pe (10^−6 cm∙s^−1) > 4.0) | 12 ± 2 ×10⁻⁶ cm/s | 20 ± 1.6 µM | 80 ± 6.3 µM | 1.1 ± 0.3 mM |  |  |  |
